This passage reports EC50, Emax and Ki results from ChEMBL document CHEMBL1151982, “Natural products as tools for neuroscience: discovery and development of novel agents to treat drug abuse” (J Nat Prod, 2009).

Common to all, as to format: functional
Assay [1] deals with T1, Kappa-type opioid receptor (Homo sapiens, UniProt P41145). As to the kind of experiment: Agonist activity at kappa opioid receptor by [35S]GTPgammaS binding assay. (In general: GTPγS is a poorly hydrolysed GTP analogue; its binding reports G protein activation.)
T1 sequence (P41145 whole entry): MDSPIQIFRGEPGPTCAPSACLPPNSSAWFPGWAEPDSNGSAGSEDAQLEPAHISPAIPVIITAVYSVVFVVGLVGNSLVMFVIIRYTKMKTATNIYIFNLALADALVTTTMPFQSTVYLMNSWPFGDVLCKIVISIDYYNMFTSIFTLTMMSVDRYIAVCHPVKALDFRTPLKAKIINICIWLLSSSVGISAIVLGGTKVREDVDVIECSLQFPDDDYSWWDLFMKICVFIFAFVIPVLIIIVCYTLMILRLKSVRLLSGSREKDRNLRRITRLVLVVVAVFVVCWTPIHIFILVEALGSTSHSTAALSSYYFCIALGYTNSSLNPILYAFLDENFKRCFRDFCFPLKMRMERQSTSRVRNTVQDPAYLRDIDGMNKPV
Assay [2] deals with T1, Kappa-type opioid receptor. As to the kind of experiment: Agonist activity at kappa opioid receptor by [35S]GTPgammaS binding assay relative to (-)-U50,488H.
The target in assay [3] is T1, Kappa-type opioid receptor. As to the kind of experiment: Antagonist activity at kappa opioid receptor by [35S]GTPgammaS binding assay.

pEC50, pKi: −log10 of the molar value.

By pEC50 is commonly meant −log10 of the EC50, conventionally taken in molar units. A word on the Emax: it is the size of the effect at its maximum, as opposed to the concentration needed. Take `COC(=O)[C@@H]1C[C@H](OC(C)=O)C(=O)[C@H]2[C@@]1(C)CC[C@H]1C(=O)O[C@H]([C@]3(O)[C@H](OC)O[C@H](OC)[C@H]3O)C[C@]21C` [SALVINICIN A]: the pEC50 in assay [1] is 5.39. For the same molecule, the Emax in assay [2] was 80%. Usually pKi stands for −log10 of the Ki, conventionally taken in molar units. A lower pKi goes with a high Ki. For the molecule `COC(=O)[C@@H]1C[C@H](OC(C)=O)C(=O)[C@@H]2[C@@]3(C)C[C@@H]([C@]4(O)[C@@H](OC)O[C@@H](OC)[C@H]4O)CC(=O)[C@@H]3CC[C@]21C` [SALVINICIN B], the pKi in assay [3] was less than 5.72.
